{
  "source": "paper PMC3898920",
  "about": "(PLoS ONE, 2014)",
  "key": {"[1]": {"assay": "Steady-state plasma pharmacokinetics of rifabutin and 25-O-desacetylrifabutin, alone and with lopinavir/ritonavir", "conditions": "for AUC: AUCτ; for C0: pre-dose"}, "[2]": {"conditions": "co-administered RMP; trial protocol background; cited from earlier work"}, "[3]": {"assay": "Plasma lopinavir and ritonavir pharmacokinetics during rifabutin co-administration", "conditions": "for Effect of the different doses of rifabutin on plasma concentrations: rifabutin 150 mg OD vs 150 mg TPW"}, "[4]": {"parameters": "method as in earlier work", "conditions": "study from the University of Cape Town; trial protocol background; cited from earlier work"}, "[5]": {"assay": "Adverse events during the trial"}, "[6]": {"conditions": "South Africa, cited from earlier work"}, "[7]": {"conditions": "rifabutin 150 mg OD with lopinavir/ritonavir, end of dosing interval 24 h, median (range)"}, "[8]": {"conditions": "rifabutin 150 mg OD with lopinavir/ritonavir, median (range)"}, "[9]": {"conditions": "rifabutin 150 mg TPW plus LPV/r vs rifabutin 300 mg OD alone"}, "[10]": {"conditions": "rifabutin 150 mg TPW with lopinavir/ritonavir, median (range)"}, "[11]": {"conditions": "rifabutin 300 mg OD alone, median (range)"}, "[12]": {"conditions": "All patients, pooled whatever the RBT dosing, median (range)"}, "[13]": {"conditions": "LPV/r 400 mg/100 mg twice daily with RBT 150 mg OD, median (range)"}, "[14]": {"conditions": "rifabutin 150 mg OD plus LPV/r vs rifabutin 300 mg OD alone"}, "[15]": {"conditions": "LPV/r 400 mg/100 mg twice daily with RBT 150 mg TPW, median (range)"}},
  "data": [
    {"compound": "25-O-desacetylrifabutin [25-O desacetyl rifabutin]", "values": [
      {"measurement": "Cmin n = 15", "setting": "[1]; [7]", "result": "114 (73 – 253) ng/mL"},
      {"measurement": "Cmin n = 25", "setting": "[1]; [7]", "result": "115 (59 – 253) ng/mL"},
      {"measurement": "Tmax", "setting": "[1]; [8]", "result": "4 (2 – 8) h"},
      {"measurement": "C0 geometric mean ratio (90% CI)", "setting": "[1]; [9]", "result": "4.35 (3.14;6.02)"},
      {"measurement": "Cmin n = 15", "setting": "[1]; rifabutin 150 mg TPW with lopinavir/ritonavir, end of dosing interval 48 h, median (range)", "result": "67 (11 – 214) ng/mL"},
      {"measurement": "Tmax", "setting": "[1]; [10]", "result": "4 (2 – 6) h"},
      {"measurement": "Cmin n = 15", "setting": "[1]; rifabutin 300 mg OD alone, end of dosing interval 24 h, median (range)", "result": "6 (0 – 33) ng/mL"},
      {"measurement": "Tmax", "setting": "[1]; [11]", "result": "3 (0 – 5) h"}
    ]},
    {"compound": "O=C1Nc2ccc(Cl)cc2[C@@](C#CC2CC2)(C(F)(F)F)O1", "note": "[EFV, efavirenz]", "values": [
      {"measurement": "Reduction of bioavailability by RMP", "setting": "[2]", "result": "approximately 25%"}
    ]},
    {"compound": "Cc1cccc(C)c1OCC(=O)N[C@@H](Cc1ccccc1)[C@@H](O)C[C@H](Cc1ccccc1)NC(=O)[C@H](C(C)C)N1CCCNC1=O", "note": "[Lopinavir]", "values": [
      {"measurement": "C0 (trough concentration)", "setting": "[3]; [12]", "result": "8739 (<50– 31171) ng/mL"},
      {"measurement": "C0 (trough concentration)", "setting": "[3]; [13]", "result": "9155 (399–27567) ng/mL"},
      {"measurement": "Effect of the different doses of rifabutin on plasma concentrations", "setting": "[3]", "result": "no significant effect"}
    ]},
    {"compound": "Cc1ccnc2c1NC(=O)c1cccnc1N2C1CC1", "note": "[NVP, nevirapine]", "values": [
      {"measurement": "Reduction of bioavailability by RMP", "setting": "[2]", "result": 35, "unit": "%"}
    ]},
    {"compound": "CO[C@H]1/C=C/O[C@@]2(C)Oc3c(C)c(O)c4c(O)c(c(/C=N/N5CCN(C)CC5)c(O)c4c3C2=O)NC(=O)/C(C)=C\\C=C\\[C@H](C)[C@H](O)[C@@H](C)[C@@H](O)[C@@H](C)[C@H](OC(C)=O)[C@@H]1C", "note": "[RMP, rifampicin]", "values": [
      {"measurement": "Reduction of drug concentrations by HIV infection", "setting": "[4]", "result": 39, "unit": "%"}
    ]},
    {"compound": "CO[C@H]1/C=C/O[C@@]2(C)Oc3c(C)c(O)c4c(c3C2=O)C2=NC3(CCN(CC(C)C)CC3)NC2=C(NC(=O)/C(C)=C\\C=C\\[C@H](C)[C@H](O)[C@@H](C)[C@@H](O)[C@@H](C)[C@H](OC(C)=O)[C@@H]1C)C4=O", "note": "[Rifabutin]", "values": [
      {"measurement": "Uveitis", "setting": "[5]; 33 enrolled patients", "result": "no uveitis"},
      {"measurement": "Cases of neutropenia", "setting": "[5]; 33 enrolled patients, one grade 3, none grade 4", "result": 4},
      {"measurement": "Total adverse events (all grades together)", "setting": "[5]; 33 enrolled patients, rifabutin-based TB treatment with d4T/3TC/LPV/r, whole follow-up", "result": 124},
      {"measurement": "Hepatic events with raised levels of liver enzymes", "setting": "[5]; events occurring in 25 patients, 33 in the first 2 months, 23 after rifabutin was stopped", "result": 56},
      {"measurement": "Number of patients with AUCτ less than 4.5 µg.h/mL", "setting": "[1]; 150 mg OD regimen with LPV/r", "result": "one"},
      {"measurement": "Number of patients with AUCτ less than 4.5 µg.h/mL", "setting": "[1]; 150 mg TPW regimen with LPV/r", "result": "four"},
      {"measurement": "Number of patients with Cmax less than 0.3 µg/mL", "setting": "[1]; 150 mg TPW regimen with LPV/r", "result": "one"},
      {"measurement": "Number of patients with AUCτ less than 4.5 µg.h/mL", "setting": "[1]; 300 mg OD regimen alone", "result": "six"},
      {"measurement": "Tmax", "setting": "[1]; human, plasma, oral, 150 mg", "result": 3, "unit": "h"},
      {"measurement": "AUC", "setting": "[1]; human, plasma, oral, 150 mg, rifabutin 150 mg OD with lopinavir/ritonavir, τ 24 h, median (range)", "result": 7.29, "unit": "µg·h/mL"},
      {"measurement": "AUC", "setting": "[1]; human, plasma, oral, 150 mg, rifabutin 150 mg TPW with lopinavir/ritonavir, τ 48 h, median (range)", "result": 7.34, "unit": "µg·h/mL"},
      {"measurement": "Cmax", "setting": "[1]; human, plasma, oral, 150 mg, rifabutin 150 mg OD with lopinavir/ritonavir, median (range)", "result": 0.671, "unit": "µg/mL"},
      {"measurement": "Cmax", "setting": "[1]; human, plasma, oral, 150 mg, rifabutin 150 mg TPW with lopinavir/ritonavir, median (range)", "result": 0.544, "unit": "µg/mL"},
      {"measurement": "AUC", "setting": "[1]; human, plasma, oral, 300 mg, rifabutin 300 mg OD alone, τ 24 h, median (range)", "result": 5.64, "unit": "µg·h/mL"},
      {"measurement": "Cmax", "setting": "[1]; human, plasma, oral, 300 mg, rifabutin 300 mg OD alone, steady state, median (range)", "result": 0.792, "unit": "µg/mL"},
      {"measurement": "concentration at 24 h", "setting": "[1]; human, plasma, oral, Cmin n = 15, rifabutin 150 mg OD with lopinavir/ritonavir, end of dosing interval 24 h, median (range)", "result": 0.161, "unit": "µg/mL"},
      {"measurement": "concentration at 48 h", "setting": "[1]; human, plasma, oral, Cmin n = 15, rifabutin 150 mg TPW with lopinavir/ritonavir, end of dosing interval 48 h, median (range)", "result": 0.054, "unit": "µg/mL"},
      {"measurement": "concentration at 24 h", "setting": "[1]; human, plasma, oral, Cmin n = 15, rifabutin 300 mg OD alone, end of dosing interval 24 h, median (range)", "result": 0.061, "unit": "µg/mL"},
      {"measurement": "concentration at 24 h", "setting": "[1]; human, plasma, oral, Cmin n = 25, rifabutin 150 mg OD with lopinavir/ritonavir, end of dosing interval 24 h, median (range)", "result": 0.169, "unit": "µg/mL"},
      {"measurement": "concentration at 24 h", "setting": "[1]; human, plasma, oral, Cmin n = 25, rifabutin 300 mg OD alone, end of dosing interval 24 h, median (range)", "result": 0.079, "unit": "µg/mL"},
      {"measurement": "AUCτ geometric mean ratio (90% CI)", "setting": "[1]; rifabutin 150 mg OD plus LPV/r (AUC24h) vs rifabutin 300 mg OD alone", "result": "1.32 (1.16;1.51)"},
      {"measurement": "C0 geometric mean ratio (90% CI)", "setting": "[1]; [14]", "result": "2.61 (2.13;3.19)"},
      {"measurement": "Cave geometric mean ratio (90% CI)", "setting": "[1]; [14]", "result": "1.32 (1.16;1.51)"},
      {"measurement": "Cmax geometric mean ratio (90% CI)", "setting": "[1]; [14]", "result": "0.88 (0.75;1.04)"},
      {"measurement": "Cave (AUCτ/τ)", "setting": "[1]; [8]", "result": "304 (147–521) ng/mL"},
      {"measurement": "C0", "setting": "[1]; [8]", "result": "180 (121 – 310) ng/mL"},
      {"measurement": "AUCτ geometric mean ratio (90% CI)", "setting": "[1]; rifabutin 150 mg TPW plus LPV/r (AUC48h) vs rifabutin 300 mg OD alone", "result": "1.12 (0.92;1.37)"},
      {"measurement": "C0 geometric mean ratio (90% CI)", "setting": "[1]; [9]", "result": "0.94 (0.73;1.21)"},
      {"measurement": "Cave geometric mean ratio (90% CI)", "setting": "[1]; [9]", "result": "0.56 (0.46;0.69)"},
      {"measurement": "Cmax geometric mean ratio (90% CI)", "setting": "[1]; [9]", "result": "0.65 (0.51;0.83)"},
      {"measurement": "Decrease in average steady state concentration (Cave)", "setting": "[1]; rifabutin 150 mg TPW with LPV/r compared with rifabutin 300 mg alone", "result": 44, "unit": "%"},
      {"measurement": "Decrease in Cmax", "setting": "[1]; rifabutin 150 mg TPW with LPV/r vs rifabutin monotherapy", "result": 35, "unit": "%"},
      {"measurement": "Cave (AUCτ/τ)", "setting": "[1]; [10]", "result": "153 (30–227) ng/mL"},
      {"measurement": "Tmax", "setting": "[1]; [10]", "result": "3 (0 – 5) h"},
      {"measurement": "C0", "setting": "[1]; [10]", "result": "70 (25 – 413) ng/mL"},
      {"measurement": "Mean increase in average steady state concentration (Cave)", "setting": "[1]; rifabutin 150 mg daily with LPV/r compared with rifabutin 300 mg alone", "result": 32, "unit": "%"},
      {"measurement": "Cave (AUCτ/τ)", "setting": "[1]; [11]", "result": "235 (113–370) ng/mL"},
      {"measurement": "C0", "setting": "[1]; [11]", "result": "74 (13 – 161) ng/mL"},
      {"measurement": "Bioequivalence of Cave with rifabutin alone (90% CI within 0.80 to 1.25)", "setting": "[1]; the two tested dosing regimens (150 mg OD, 150 mg TPW) combined with lopinavir/ritonavir", "result": "failed to show bioequivalence"},
      {"measurement": "AUCτ, median", "setting": "[6]; 300 mg OD dose", "result": 3.053, "unit": "µg·h/mL"},
      {"measurement": "Patients with areas under the curve less than 4.5 µg.h/mL", "setting": "[6]; intermittent dose (three times a week) with LPV/r", "result": "over 85%"}
    ]},
    {"compound": "CC(C)c1nc(CN(C)C(=O)N[C@H](C(=O)N[C@@H](Cc2ccccc2)C[C@H](O)[C@H](Cc2ccccc2)NC(=O)OCc2cncs2)C(C)C)cs1", "note": "[Ritonavir]", "values": [
      {"measurement": "C0 (trough concentration)", "setting": "[3]; [12]", "result": "303 (25–680) ng/mL"},
      {"measurement": "C0 (trough concentration)", "setting": "[3]; [13]", "result": "314 (25– 569) ng/mL"},
      {"measurement": "C0 (trough concentration)", "setting": "[3]; [15]", "result": "257 (25–680) ng/mL"},
      {"measurement": "Cmax", "setting": "[3]; [15]", "result": "816 (405–2484) ng/ml"},
      {"measurement": "Effect of the different doses of rifabutin on plasma concentrations", "setting": "[3]", "result": "no significant effect"}
    ]}
  ]
}
